Read-outs that look alike come from different tables or passages of the source.
Columns and labels:
ATF6 [1] = target: T1, ATF6 (Homo sapiens, UniProt P18850); assay: ERSE ATF6-luciferase assay in presence of Tg-induced ER stress (U2-OS ATF6 TRE-luciferase reporter cells); type: cell-based; settings: in presence of ER stress (thapsigargin), Tg only = 100%; for ATF6 activity @ 1 μM [%] / ATF6 activity @ 10 μM [%]: 8 hr; for ATF6 activity @ 10 μM [%] / activity at 10 µM: 10 μM test compound
T1 construct: endogenous in cells; host or cells: U2-OS (ATCC HTB-96) stably transduced with the Cignal Lenti ATF6 luc reporter (Qiagen #CLS-6031L)
T1 sequence (P18850 1-670): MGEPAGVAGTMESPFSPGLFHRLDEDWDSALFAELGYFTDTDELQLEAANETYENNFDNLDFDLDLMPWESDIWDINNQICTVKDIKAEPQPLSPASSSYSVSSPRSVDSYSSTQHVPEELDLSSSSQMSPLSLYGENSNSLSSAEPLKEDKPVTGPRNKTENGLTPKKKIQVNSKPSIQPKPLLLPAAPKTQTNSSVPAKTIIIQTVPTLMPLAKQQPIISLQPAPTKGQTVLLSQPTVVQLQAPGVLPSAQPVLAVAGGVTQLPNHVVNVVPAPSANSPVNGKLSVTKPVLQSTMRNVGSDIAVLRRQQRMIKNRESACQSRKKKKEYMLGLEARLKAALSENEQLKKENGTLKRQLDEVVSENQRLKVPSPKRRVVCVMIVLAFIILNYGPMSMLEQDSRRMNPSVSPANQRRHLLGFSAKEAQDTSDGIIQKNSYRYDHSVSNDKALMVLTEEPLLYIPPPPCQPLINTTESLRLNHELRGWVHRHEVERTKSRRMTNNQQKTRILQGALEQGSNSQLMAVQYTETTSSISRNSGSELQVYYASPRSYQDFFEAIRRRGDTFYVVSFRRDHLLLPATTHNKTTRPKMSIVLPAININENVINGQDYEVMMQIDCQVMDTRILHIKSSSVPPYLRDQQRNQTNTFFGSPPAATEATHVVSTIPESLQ
Method: (§1) To understand how exemplary compounds of the invention modulate the activity of ATF6 in absence or presence of endoplasmic reticulum (ER) stress, a Human bone osteosarcoma (U2-OS)-based TRE-luciferase reporter stable cell line was generated to determine the modulation of transcription of ATF6 target genes.
(§2) U2-OS cells were obtained from the American Type Culture Collection (ATCC HTB-96, ATCC Manassas, VA) and were cultured with growing medium containing Dulbecco's Modified Eagle's Medium (DMEM) (Cat. No.: SH30023.02, HyClone) supplemented with fetal bovine serum (FBS) 10% (Cat. No.: 16000044, Gibco) and 1% penicillin-streptomycin antibiotic cocktail (Cat. No.: SV30010, Hyclone).
(§3) Cignal Lenti ATF6 luc reporter (Qiagen #CLS-6031L) was used to produce a stable cell line in U2-OS cells (U2-OS ATF6 TRE-luciferase reporter). The lenti ATF6 reporter is a preparation of replication incompetent, VSV-g pseudotyped lentivirus particles expressing the firefly luciferase gene under the control of a minimal (m)CMV promoter and tandem repeats of the ATF6 transcriptional response element (TRE). The number of response elements as well as the intervening sequence between response elements has been experimentally optimized to maximize the signal to noise ratio.
(§4) Exemplary compounds of the invention and reference compounds were prepared from powder as 10 mM stock solutions in dimethyl sulfoxide (DMSO; Cat. No. #D2650, Sigma Aldrich) and stored at −80° C. in presence of N2 neutral atmosphere.
(§5) For the primary screening, 40,000 U2-OS ATF6 TRE-luciferase reporter cells were plated in poly-D-lysine (Cat. No.: P2636, Sigma) pre-coated white 96-well plates (Thermo Scientific Nunc #136101) with 100 μL of growing medium. Cells were incubated in humidified chambers for 24 hr.
For testing exemplary compounds in presence of ER-stress, cells were pre-treated for 30 min with 50 μL growing medium containing either vehicle (DMSO), 1 or 10 μM test compound. After this pre-incubation, 50 μL of a solution containing 0.2 μM of the ER stress-inducer thapsigargin (Tg) was added to the appropriate wells. The Tg solution also contains vehicle or test compounds at 1 or 10 μM as indicated. The final concentration of DMSO in each well was kept at 0.3%. Plates were incubated for 8 hr in humidified chambers.
After the 8 hr incubation, plates were cooled down to room temperature for 10 min prior to the luciferase assays. Luciferase reactions were performed using Luciferase Assay System (Cat. No.: E4550, Promega). Briefly, each well was washed with 100 μl of PBS 1× and, then, 20 μl of lysis reagent was added into each well. Plates were shaken for 10 min and, then, 50 μl of Luciferase Assay Reagent was added to each well. Luminescence was determined by integration of 1 s with a gain of 110 in a Synergy 4 Microplate reader. All measurements were carried out in triplicate.
The average activity determined from the wells containing vehicle only (DMSO, 0% of ATF6 activity) was used as blank and subtracted from the rest of measurements. The average activity determined from the wells containing Tg only was used as 100% of ATF6 activity. The percentage of modulation of exemplary compounds was calculated by normalizing values to potential maximal activation with Tg.
ATF6 activities of exemplary compounds at 1 and 10 μM in presence Tg-induced ER stress tested in the U2-OS ATF6 TRE-luciferase reporter cells were determined and are shown in Table 2-2 and Table 3-2.

ATF6 [2] = target: T1, ATF6; assay: ERSE ATF6-luciferase assay in absence of ER stress (U2-OS ATF6 TRE-luciferase reporter cells); type: cell-based; settings: normalized to maximal activation with Tg; for ATF6 activity @ 1 μM-No Tg [%] / ATF6 activity @ 10 μM - No Tg [%]: Table 3-3
Method: as §1, §2, §3, §4, §5
For testing exemplary compounds in absence of ER-stress, cells were treated for 8 hr with 100 μL growing medium containing either vehicle (DMSO), 1 or 10 μM test compound or 0.1 μM Tg. The final concentration of DMSO in each well was kept at 0.3%. Plates were incubated in humidified chambers.
After 8 hr of incubation, plates were cooled down to room temperature for 10 min prior to luciferase assays. Luciferase reactions were performed as above. Luminescence was read by integration of 1 s with a gain of 110 in a Synergy 4 Microplate reader. All measurements were carried out in triplicate.
The average activity determined from the wells containing vehicle only (DMSO, 0% of ATF6 activity) was used as blank and subtracted from the rest of measurements. The percentage of modulation of exemplary compound was calculated by normalizing values to potential maximal activation with Tg.
ATF6 activities of exemplary compounds at 1 and 10 μM in absence of Tg-induced ER stress in the U2-OS ATF6 TRE-luciferase reporter cells were determined and are shown in Table 3-2, and Table 3-3.

[3] = 1 μM test compound, in absence of ER stress (no Tg), 8 hr
[4] = 10 μM test compound, in absence of ER stress (no Tg), 8 hr

| Compound | ATF6 activity @ 1 μM [%] (ATF6 [1]; 1 μM test compound, Table 2-3) | ATF6 activity @ 10 μM [%] (ATF6 [1]; Table 2-3) | ATF6 activity @ 1 μM-No Tg [%] (ATF6 [2]; [3]) | ATF6 activity @ 10 μM - No Tg [%] (ATF6 [2]; [4]) | further results |
| --- | --- | --- | --- | --- | --- |
| CC(C1CCCC1)n1cc(NC(=O)c2cc(-c3ccco3)on2)cn1 (single isomer, unassigned) [Compound 3-18, N-(1-(1-cyclopentylethyl)-1H-pyrazol-4-yl)-5-(furan-2-yl)isoxazole-3-carboxamide] | + (+ refers to 100% < % activity < 125% at 1 or 10 μM) | ++ (++ refers to 125% < % activity < 150% at 1 or 10 μM test compound) | + (+ refers to 0% < % activity < 25% at 1 or 10 μM test compound) | + (+ refers to 0% < % activity < 25% at 1 or 10 μM test compound) |  |
| O=C(Nc1cnn(Cc2ccc(C(F)(F)F)cc2)c1)c1cc(-c2ccco2)on1 [Ceapin-A8, reference compound] | + (+ refers to 100% < % activity < 125% at 1 or 10 μM) | − (− refers to 75% < % activity < 100% at 1 or 10 μM) |  |  | ATF6 activity @ 1 μM [%] (ATF6 [1]; 1 μM test compound, Table 2-2): + (+ refers to 100% < % activity < 125% at 1 or 10 μM); ATF6 activity @ 10 μM [%] (ATF6 [1]; Table 2-2): − (− refers to 75% < % activity < 100% at 1 or 10 μM); ATF6 activity @ 1 μM [%] (ATF6 [2]; 1 μM test compound, in absence of ER stress, 8 hr, Table 3-2): + (+ refers to 0% < % activity < 25% at 1 or 10 μM test compound) |
| O=C(Nc1cnn(C2CCOC2)c1)c1cc(-c2ccccn2)on1 (single isomer, unassigned) [Compound 3-21, 5-(pyridin-2-yl)-N-(1-(tetrahydrofuran-3-yl)-1H-pyrazol-4-yl)isoxazole-3-carboxamide] | +++ (+++ refers to >150% at 1 or 10 μM test compound) | +++ (+++ refers to >150% at 1 or 10 μM test compound) | + (+ refers to 0% < % activity < 25% at 1 or 10 μM test compound) | ++ (++ refers to 25% < % activity < 50% at 1 or 10 μM test compound) |  |
| O=C(Nc1cnn(C2CCOC2)c1)c1cc(-c2cccs2)on1 (single isomer, unassigned) [Compound 3-23, N-(1-(tetrahydrofuran-3-yl)-1H-pyrazol-4-yl)-5-(thiophen-2-yl)isoxazole-3-carboxamide] | +++ (+++ refers to >150% at 1 or 10 μM test compound) | +++ (+++ refers to >150% at 1 or 10 μM test compound) | ++ (++ refers to 25% < % activity < 50% at 1 or 10 μM test compound) | +++ (+++ refers to % activity >50 % at 1 or 10 μM test compound) |  |
| O=C(Nc1cnn(C2CCOC2)c1)c1cc(-c2cccs2)on1 (single isomer, unassigned) [Compound 3-22, N-(1-(tetrahydrofuran-3-yl)-1H-pyrazol-4-yl)-5-(thiophen-2-yl)isoxazole-3-carboxamide] | ++ (++ refers to 125% < % activity < 150% at 1 or 10 μM test compound) |  | + (+ refers to 0% < % activity < 25% at 1 or 10 μM test compound) | ++ (++ refers to 25% < % activity < 50% at 1 or 10 μM test compound) | activity at 10 µM (ATF6 [1]; U2OS, 8 h, Table 2-3): > 150% |
| CC(C1CCOC1)n1cc(NC(=O)c2cc(-c3ccco3)on2)cn1 (stereo not drawn) [Compound 3-26, 5-(furan-2-yl)-N-(1-(1-(tetrahydrofuran-3-yl)ethyl)-1H-pyrazol-4-yl)isoxazole-3-carboxamide] | +++ (+++ refers to >150% at 1 or 10 μM test compound) | +++ (+++ refers to >150% at 1 or 10 μM test compound) | + (+ refers to 0% < % activity < 25% at 1 or 10 μM test compound) | +++ (+++ refers to % activity >50 % at 1 or 10 μM test compound) |  |
| CC(C1CCOC1)n1cc(NC(=O)c2cc(-c3ccco3)on2)cn1 (stereo not drawn) [Compound 3-24, 5-(furan-2-yl)-N-(1-(1-(tetrahydrofuran-3-yl)ethyl)-1H-pyrazol-4-yl)isoxazole-3-carboxamide] | + (+ refers to 100% < % activity < 125% at 1 or 10 μM) |  |  | ++ (++ refers to 25% < % activity < 50% at 1 or 10 μM test compound) | activity at 10 µM (ATF6 [1]; U2OS, 8 h, Table 2-3): > 150%; activation at 1 µM (ATF6 [2]; U2OS, 8 h, 1 μM test compound, in absence of ER stress (no Tg), Table 3-3, read-out: ATF6 activity @ 1 μM-No Tg [%]): 0 to 25% |
| CC(c1c(Cl)cccc1Cl)n1cc(C#Cc2nnc(-c3ccccn3)s2)cn1 (stereo not drawn) [Compound 2-20, 2-((1-(1-(2,6-dichlorophenyl)ethyl)-1H-pyrazol-4-yl)ethynyl)-5-(pyridin-2-yl)-1,3,4-thiadiazole] |  |  |  |  | activity at 1 µM (ATF6 [1]; U2OS, 8 h, 1 μM test compound, Table 2-2): 75 to 100%; activity at 10 µM (ATF6 [1]; U2OS, 8 h, Table 2-2): 100 to 125%; activation at 1 µM (ATF6 [2]; U2OS, 8 h, 1 μM test compound, in absence of ER stress, Table 3-2, read-out: ATF6 activity @ 1 μM [%]): 0 to 25%; activation at 10 µM (ATF6 [2]; U2OS, 8 h, 10 μM test compound, in absence of ER stress, Table 3-2, read-out: ATF6 activity @ 10 μM [%]): 0 to 25% |

Source: patent US12662478B2, “ATF6 modulators and uses thereof” (Altos Labs, Inc., priority 2019, dated 2026)
